One series relates to DSS-induced colitis mice. Briefly: Dextran sulfate sodium (DSS)-induced colitis model, disease activity index. The format is in vivo. How it is done: The effect of NXC736 for inflammatory bowel disease was evaluated using a dextran sulfate sodium (DSS)-induced colitis model. In the mouse model, inflammatory bowel disease was induced by administering DSS to mice in drinking water at a concentration of 2.5%. Treatment groups consisted of a test group administered NXC736, a positive control administered ozanimod or methotrexate (MTX), a vehicle group and a normal control, and each group had n=10. In the model in which inflammatory bowel disease was induced, NXC736, which is the compound of the present invention, was orally administered at a dose of 5 and 10 mg/kg once a day for 7 days, ozanimod as a positive control material was orally administered at 5 mg/kg once a day, and methotrexate (MTX) as a positive control material was intraperitoneally administered at 3 mg/kg three times a week.
FIG. 3 illustrates the disease activity index (DAI) of DSS-induced colitis mice and the area under the disease activity index curve (AUC) of DSS-induced colitis mice. […] The calculation criteria for DAI are shown in the following Table 1, and the DAI was evaluated on days 0, 1, 2, 3, 4, 5, 6, 7, and 8.

The subject of series [1] is T cells, CD4 T cells, and CD8 T cells. The experiment in a line: Suppressive effect on mouse immune cells (FACS of peripheral blood and bone marrow after oral administration). The format is in vivo. Particulars: mice; for Cell number in bone marrow, percentage of control based on 0 time: listed as NXC7363, 3 mg/kg. How it is done: To confirm whether NXC736, which acts on the S1P receptor, also has an effect on lymphocyte reduction, the effect of NXC736 on immune cells was evaluated. After oral administration of NXC736 at 3 mg/kg/day to mice, changes in lymphocytes in the peripheral blood (PB) stream and bone marrow (BM) were classified for T cells, CD4T cells, and CD8T cells, and FACS analysis was performed at 0, 4, 8, 12, 24, and 36 hours after the administration of a test material. A cell number was measured and shown as a percentage (%) of a control based on 0 time.

Series [2] shares this test system. Briefly: Suppressive effect on rat immune cells (FACS of peripheral blood and bone marrow after oral administration). The format is in vivo. Particulars: SD rats. As for the experimental part: To evaluate the effect of NXC736 on rat immune cells, after oral administration of NXC736 at 10 mg/kg/day to SD rats, changes in lymphocytes in the peripheral blood (PB) stream and bone marrow (BM) were classified for T cells, CD4 T cells, and CD8 T cells, and FACS analysis was performed at 0, 4, 8, 12, 24, 36, and 48 hours after the administration of a test material. A cell number was measured and shown as a percentage (%) of a control based on 0 time, and the numbers of T cells, CD4 T cells, and CD8 T cells were measured and shown as a percentage (%) of a control based on 0 time.

The nature of series [3]: Cardiovascular system in beagle dogs (telemetry heart rate, general symptoms). The format is in vivo. To be noted: oral 12.5, 25 and 50 mg/kg. How it is done: NXC736 was orally administered to four male beagle dogs under unanesthetized and unrestrained conditions with a remote transmitter inserted. Thereafter, the effect of NXC736 on the cardiovascular system was evaluated by measuring the heart rate for four beagle dogs, and it was confirmed with the naked eye whether abnormal symptoms appeared.
In this experiment, the experimental material was administered to each of the four beagle dogs over four steps. A 0.5% MC aqueous solution, which is an excipient, was administered as a control material in the first administration step (NXC7365 at 0 mg/kg), NXC736 at 12.5 mg/kg was administered in the second administration step, NXC736 at 25 mg/kg was administered in the third administration step, and NXC736 at 50 mg/kg was administered in the fourth administration step. The 1st to 4th administrations were performed at intervals of 1 week. In addition, at 0 hours before administration of the experimental material and at 0.5 hours, 1 hour, 2 hours, 3 hours, 4 hours, 6 hours, 8 hours, 12 hours and 24 hours after administration of the test material, the beagle dog's heart rate were measured.

For series [4], the target named is hERG potassium ion channels (Homo sapiens, UniProt Q12809).
[5] abbreviates: oral 3 mg/kg, peripheral blood, 4 hours, 3 mg/kg.

“And” between values parts separate entries of the source, which are not always exact repeats. Equal values may be shown once. Read-outs that look alike come from different tables or passages of the source.

Sequence of hERG potassium ion channels (Q12809 whole entry): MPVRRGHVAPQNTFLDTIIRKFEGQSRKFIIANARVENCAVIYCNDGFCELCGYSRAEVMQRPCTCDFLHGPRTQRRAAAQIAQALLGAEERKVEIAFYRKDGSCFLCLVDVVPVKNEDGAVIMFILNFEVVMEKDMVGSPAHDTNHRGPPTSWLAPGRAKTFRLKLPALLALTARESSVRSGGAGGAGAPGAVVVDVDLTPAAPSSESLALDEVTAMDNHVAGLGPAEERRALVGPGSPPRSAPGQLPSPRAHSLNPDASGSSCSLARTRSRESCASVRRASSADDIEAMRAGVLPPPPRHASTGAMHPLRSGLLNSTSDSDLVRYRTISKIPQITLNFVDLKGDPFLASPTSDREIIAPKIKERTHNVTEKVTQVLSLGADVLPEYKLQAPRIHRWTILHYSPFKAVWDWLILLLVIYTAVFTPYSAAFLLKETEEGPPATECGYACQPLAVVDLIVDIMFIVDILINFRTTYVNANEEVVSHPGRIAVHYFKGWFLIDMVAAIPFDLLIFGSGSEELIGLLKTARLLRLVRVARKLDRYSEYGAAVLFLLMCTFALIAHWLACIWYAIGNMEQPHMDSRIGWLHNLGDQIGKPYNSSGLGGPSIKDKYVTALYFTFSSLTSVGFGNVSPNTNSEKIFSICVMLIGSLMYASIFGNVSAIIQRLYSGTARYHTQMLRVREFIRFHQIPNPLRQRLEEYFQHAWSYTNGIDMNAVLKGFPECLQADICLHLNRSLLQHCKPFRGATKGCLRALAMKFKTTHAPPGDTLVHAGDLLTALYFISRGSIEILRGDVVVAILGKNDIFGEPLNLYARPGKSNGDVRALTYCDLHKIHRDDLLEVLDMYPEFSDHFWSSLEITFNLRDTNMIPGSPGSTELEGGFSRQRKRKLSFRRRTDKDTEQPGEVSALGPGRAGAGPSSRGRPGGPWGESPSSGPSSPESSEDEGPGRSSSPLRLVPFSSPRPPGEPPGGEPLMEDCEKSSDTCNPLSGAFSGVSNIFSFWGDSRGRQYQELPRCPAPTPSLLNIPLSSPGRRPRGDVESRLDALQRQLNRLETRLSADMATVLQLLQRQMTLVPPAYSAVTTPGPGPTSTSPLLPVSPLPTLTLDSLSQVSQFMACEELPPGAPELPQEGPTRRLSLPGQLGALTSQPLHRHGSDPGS

Consider `CC(C)Oc1ccc(-c2nc(-c3cccc4c3CC[C@@H]4NCCO)no2)cc1C#N` [ozanimod, reference compound], for which, in the series with DSS-induced colitis mice (ozanimod 5 mg/kg orally once a day), the “Disease activity index (DAI) and AUC compared to negative control (vehicle)” value (shortened to “Disease activity index (DAI) and AUC”) is given as “statistically significant reduction effect”.

For the compound `CCCCCCCCCCn1cc(CCC(N)(CO)CO)nn1` [NXC736, 2-amino-2-(2-(1-decyl-1H-1,2,3-triazol-4-yl)ethyl)propane-1,3-diol], the “Cell number in bone marrow, percentage of control based on 0 time” value in series [1] (3 mg/kg, 4 hours after administration) was 135% and 120%; in series [1] (3 mg/kg, 24 hours after administration), 131% and 118%. In series [1] (3 mg/kg, reduced from 4 hours, then recovered), the “Time until which the suppressive effect on T cell number was maintained to some extent” value was determined as 24 h. Further, the “Time until which the reduction of cell number in peripheral blood was maintained” value in series [1] (oral 3 mg/kg, peripheral blood) stood at 12 h. In addition, in series [1] (setting [5]), the “CD4 T cell number in peripheral blood, percentage of control based on 0 time” value was 16.4% and 17.6%. In series [1] (setting [5]), the “CD8 T cell number in peripheral blood, percentage of control based on 0 time” value was 5.9% and 9.3%. For the same compound, the “T cell number in peripheral blood, percentage of control based on 0 time” value in series [1] (setting [5]) was 40.6% and 41.6%. Also, the “Cell number level recovered in peripheral blood, percentage of control” value in series [1] (oral 3 mg/kg, peripheral blood, 36 hours) is recorded as 88.9%. For the same compound, the “Time until which the suppressive effect on T cells was maintained” value in series [2] (oral 10 mg/kg, peripheral blood) was found to be 24 h. The “Change of cell number in bone marrow” value in series [2] (oral, bone marrow) is listed as “no change or a tendency to increase”. Besides, the “Suppressive effect on number of T cells in peripheral blood” value in series [2] (oral, peripheral blood, dose-dependent (doses of the three values not given)) was 70% and 80% and 87%. Besides, the “Clinical indicators (body weight loss, stool concentration, intestinal bleeding) compared to ozanimod” value in the series with DSS-induced colitis mice (NXC736 5 mg/kg and 10 mg/kg vs ozanimod 5 mg/kg) was “equivalent values or more”. The “Disease activity index (DAI) and AUC” value in the series on DSS-induced colitis mice (NXC736 5 mg/kg orally once a day for 7 days) and in the series on DSS-induced colitis mice (NXC736 10 mg/kg orally once a day for 7 days) was “statistically significant reduction effect” in each case. In addition, the “General symptoms observed with the naked eye” value in series [3] is listed as “no abnormal symptoms”. Moreover, the “Change in heart rate” value in series [3] (0 to 24 hours) is listed as “no change in heart rate”. For the same compound, the Hill coefficient in series [4] came out at 1.527. Also, the “Compensated suppression rate of hERG channel currents” value in series [4] (1 μM) was 9.94±1.96%; in series [4] (3 μM) it was 13.98±4.48%; in series [4] (10 μM), 35.03±12.09%; in series [4] (30 μM), 82.62±7.31%.

Turning to `CN(Cc1cnc2nc(N)nc(N)c2n1)c1ccc(C(=O)N[C@@H](CCC(=O)O)C(=O)O)cc1` [MTX, methotrexate, reference compound], the “Disease activity index (DAI) and AUC” value in the series on DSS-induced colitis mice (MTX 3 mg/kg intraperitoneally three times a week) is reported as “statistically significant reduction effect”.

For the origin of these results see US12048689B2, “Pharmaceutical composition for preventing or treating inflammatory bowel disease acting as a functional antagonist for S1PR1 and S1PR4” (NEXTGEN BIOSCIENCE CO., LTD., priority 2022, dated 2024).
